The values that follow come from ChEMBL document CHEMBL1137171, “D-piece modifications of the hemiasterlin analog HTI-286 produce potent tubulin inhibitors” (Bioorg Med Chem Lett, 2004).

What all share (settings): Homo sapiens
In one assay the test system is KB 3-1. Nature of the assay: Compound was tested for cytotoxicity against paclitaxel sensitive KB-3-1 cell line. Type of assay: functional, cell-based.
The test system of a further assay is KB. Nature of the assay: Compound was tested for cytotoxicity against paclitaxel resistant KB-8-5 cell line expressing P-glycoprotein. Type of assay: functional, cell-based.
Assay [1] is described as follows: Compound was tested for cytotoxicity against paclitaxel resistant KB-V1 cell line expressing P-glycoprotein.

In general, IC50 refers to the point on the concentration scale where inhibition reaches its midpoint. Read a high IC50 as a need for much substance. `CN[C@H](C(=O)N[C@H](C(=O)N(C)[C@H](C(=O)N1CCC[C@@H]1C(=O)O)C(C)C)C(C)(C)C)C(C)(C)c1ccccc1`: the IC50 (in the assay on KB 3-1; in the assay with KB; in assay [1]) was greater than 3000 nM in each case.

For the molecule `CN[C@H](C(=O)N[C@H](C(=O)N(C)[C@H](/C=C(\C)[C@H](O)c1ccccc1)C(C)C)C(C)(C)C)C(C)(C)c1ccccc1`, the IC50 was determined as 124 nM with KB 3-1, 186 nM in the assay on KB and 632 nM in assay [1].

For `CN[C@H](C(=O)N[C@H](C(=O)N(C)[C@H](/C=C(\C)C(=O)N1CC(O)C[C@@H]1C(=O)O)C(C)C)C(C)(C)C)C(C)(C)c1ccccc1` (some centres not stated), the concentration for half-maximal inhibition (IC50) in the assay with KB 3-1 was 184 nM; in the assay with KB, 1850 nM; in assay [1], greater than 3000 nM.

As to `CN[C@H](C(=O)N[C@H](C(=O)N(C)[C@H](/C=C(\C)C(=O)N1CCCC[C@@H]1C(=O)OC)C(C)C)C(C)(C)C)C(C)(C)c1ccccc1`, the figures for the IC50 (in the assay with KB 3-1; in the assay on KB; in assay [1]) were 5.2 nM, 17 nM and 150 nM, respectively.

As for `CN[C@H](C(=O)N[C@H](C(=O)N(C)[C@H](/C=C(\C)C(O)c1ccccc1)C(C)C)C(C)(C)C)C(C)(C)c1ccccc1` (single isomer, unassigned), the half-inhibitory concentration (IC50) with KB 3-1 was 16 nM; with KB it was 22 nM; in assay [1], 190 nM.

Take `CN[C@H](C(=O)N[C@H](C(=O)N(C)[C@H](/C=C1\NC(=O)NC1=O)C(C)C)C(C)(C)C)C(C)(C)c1ccccc1`: the values for the IC50 (with KB 3-1; in the assay with KB; in assay [1]) were 1070 nM, 1740 nM and greater than 3000 nM, respectively.

With `CN[C@H](C(=O)N[C@H](C(=O)N(C)[C@H](/C=C(\C)C(=O)N1CCC[C@@H]1C(=O)NCCc1ccccc1)C(C)C)C(C)(C)C)C(C)(C)c1ccccc1`, the IC50 came to 6.4 nM with KB 3-1, 21 nM in the assay with KB and 1670 nM in assay [1].

For the molecule `CN[C@H](C(=O)N[C@H](C(=O)N(C)[C@H](/C=C(\C)C(=O)O)C(C)C)C(C)(C)C)C(C)(C)c1ccccc1` [TALTOBULIN], the half-maximal inhibitory concentration (IC50) in the assay with KB 3-1 worked out at 0.96 nM; with KB, 2.3 nM; in assay [1], 77 nM.

`CN[C@H](C(=O)N[C@H](C(=O)N(C)[C@H](/C=C1/C(=O)NC(=O)N1C)C(C)C)C(C)(C)C)C(C)(C)c1ccccc1`: the values for the IC50 (in the assay with KB 3-1; in the assay with KB; in assay [1]) were 5.1 nM, 9.9 nM and 230 nM, respectively.

Regarding `CN[C@H](C(=O)N[C@H](C(=O)N(C)[C@H](/C=C(\C)C(=O)N1CCC[C@@H]1C(=O)OC)C(C)C)C(C)(C)C)C(C)(C)c1ccccc1`, the IC50 was determined as 1.5 nM in the assay on KB 3-1, 7.3 nM with KB and 291 nM in assay [1].

In the case of `CN[C@H](C(=O)N[C@H](C(=O)N(C)[C@H](/C=C(\C)C(=O)N1CCC[C@H]1C(=O)O)C(C)C)C(C)(C)C)C(C)(C)c1ccccc1`, the IC50 is 515 nM in the assay with KB 3-1, 1580 nM in the assay with KB and greater than 3000 nM in assay [1].

Consider `CN[C@H](C(=O)N[C@H](C(=O)N(C)[C@H](/C=C(\C)C(=O)c1nccs1)C(C)C)C(C)(C)C)C(C)(C)c1ccccc1`, for which the IC50 with KB 3-1 was found to be 582 nM; in the assay on KB it was 565 nM; in assay [1], 1790 nM.

Take `CN[C@H](C(=O)N[C@H](C(=O)N(C)[C@H](/C=C(\C)C(=O)N1CCC[C@@H]1C(=O)OC)C(C)C)C(C)(C)C)C(C)(C)c1cccc(C)c1`: the IC50 came out at 1.6 nM with KB 3-1, 6.2 nM with KB and 275 nM in assay [1].

As for `CN[C@H](C(=O)N[C@H](C(=O)N(C)[C@H](/C=C(\C)CO)C(C)C)C(C)(C)C)C(C)(C)c1ccccc1`, the IC50 worked out at 454 nM with KB 3-1, 447 nM in the assay with KB and 1590 nM in assay [1].

In the case of `CN[C@H](C(=O)N[C@H](C(=O)N(C)[C@H](/C=C(\C)C(=O)c1ncc[nH]1)C(C)C)C(C)(C)C)C(C)(C)c1ccccc1`, the IC50 is 218 nM in the assay on KB 3-1, 1360 nM in the assay on KB and greater than 3000 nM in assay [1].

`CN[C@H](C(=O)N[C@H](C(=O)N(C)[C@H](/C=C(\C)C(O)c1nccs1)C(C)C)C(C)(C)C)C(C)(C)c1ccccc1` (some centres not stated): the IC50 was found to be 13 nM in the assay with KB 3-1, 19 nM in the assay with KB and 364 nM in assay [1].

Consider `CN[C@H](C(=O)N[C@H](C(=O)N(C)[C@H](/C=C(\C)C(=O)N1CCC[C@@H]1C(=O)O)C(C)C)C(C)(C)C)C(C)(C)c1cccc(Cl)c1`, for which the results for the concentration for half-maximal inhibition (IC50) (with KB 3-1; with KB; in assay [1]) were 62 nM, 180 nM and greater than 3000 nM, respectively.

Consider `CN[C@H](C(=O)N[C@H](C(=O)N(C)[C@H](/C=C(/C)C(=O)O)C(C)C)C(C)(C)C)C(C)(C)c1ccccc1`, for which the values for the IC50 (with KB 3-1; with KB; in assay [1]) were 28 nM, 58 nM and 2630 nM, respectively.

`CN[C@H](C(=O)N[C@H](C(=O)N(C)[C@H](/C=C/c1nn[nH]n1)C(C)C)C(C)(C)C)C(C)(C)c1ccccc1`: the IC50 in the assay on KB 3-1 is 1150 nM; in the assay on KB, 1820 nM; in assay [1] it was greater than 3000 nM.

As for `CN[C@H](C(=O)N[C@H](C(=O)N(C)[C@H](/C=C(\C)C(C)=O)C(C)C)C(C)(C)C)C(C)(C)c1ccccc1`, the IC50 turned out to be 403 nM in the assay on KB 3-1, 664 nM in the assay on KB and 2360 nM in assay [1].

In the case of `CN[C@H](C(=O)N[C@H](C(=O)N(C)[C@H](/C=C(\C)C(=O)N1CCC[C@@H]1C(=O)O)C(C)C)C(C)(C)C)C(C)(C)c1cccc(C)c1`, the IC50 is 70 nM with KB 3-1, 599 nM in the assay with KB and greater than 3000 nM in assay [1].

For `CN[C@H](C(=O)N[C@H](C(=O)N(C)[C@H](/C=C(\C)C(=O)N1CC(O)C[C@@H]1C(=O)OC)C(C)C)C(C)(C)C)C(C)(C)c1ccccc1` (some centres not stated), the IC50 in the assay on KB 3-1 was 3.5 nM; in the assay with KB, 116 nM; in assay [1], greater than 3000 nM.

As to `CN[C@H](C(=O)N[C@H](C(=O)N(C)[C@H](/C=C(\C)C=O)C(C)C)C(C)(C)C)C(C)(C)c1ccccc1`, the half-maximal inhibitory concentration (IC50) in the assay with KB 3-1 came to 454 nM; with KB, 447 nM; in assay [1], 1590 nM.

As for `CN[C@H](C(=O)N[C@H](C(=O)N(C)[C@H](/C=C(\C)c1ccccc1)C(C)C)C(C)(C)C)C(C)(C)c1ccccc1`, the IC50 (in the assay on KB 3-1; with KB; in assay [1]) was greater than 3000 nM in each case.

Regarding `CN[C@H](C(=O)N[C@H](C(=O)N(C)[C@H](/C=C(\C)C(=O)N1CCC[C@@H]1C(=O)O)C(C)C)C(C)(C)C)C(C)(C)c1ccccc1`, the results for the IC50 (in the assay with KB 3-1; in the assay on KB; in assay [1]) were 62 nM, 205 nM and greater than 3000 nM, respectively.

Take `CN[C@H](C(=O)N[C@H](C(=O)N(C)[C@H](/C=C(\C)C(=O)N1CCC[C@H]1C(=O)OC)C(C)C)C(C)(C)C)C(C)(C)c1ccccc1`: the IC50 is 16 nM with KB 3-1, 51 nM in the assay with KB and 1100 nM in assay [1].

As for `CN[C@H](C(=O)N[C@H](C(=O)N(C)[C@H](/C=C(\C)C(=O)N1CCC[C@@H]1C(=O)O)C(C)C)C(C)(C)C)C(C)(C)c1ccc(C)c(C)c1`, the values for the IC50 (with KB 3-1; with KB; in assay [1]) were 74 nM, 519 nM and greater than 3000 nM, respectively.

Take `CN[C@H](C(=O)N[C@H](C(=O)N(C)[C@H](/C=C(\C)C(=O)c1ccccc1)C(C)C)C(C)(C)C)C(C)(C)c1ccccc1`: the values for the IC50 (with KB 3-1; with KB; in assay [1]) were 725 nM, 1330 nM and 1800 nM, respectively.

For `CN[C@H](C(=O)N[C@H](C(=O)N(C)[C@H](/C=C(\C)C(=O)N1CCCC[C@@H]1C(=O)O)C(C)C)C(C)(C)C)C(C)(C)c1ccccc1`, the values for the half-maximal inhibitory concentration (IC50) (in the assay on KB 3-1; in the assay with KB; in assay [1]) were 64 nM, 270 nM and greater than 3000 nM, respectively.

As for `CN[C@H](C(=O)N[C@H](C(=O)N(C)[C@H](/C=C/C(=O)O)C(C)C)C(C)(C)C)C(C)(C)c1ccccc1`, the values for the IC50 (in the assay on KB 3-1; in the assay on KB; in assay [1]) were 191 nM, 479 nM and greater than 3000 nM, respectively.

On to `CN[C@H](C(=O)N[C@H](C(=O)N(C)[C@H](/C=C(C)/C=C(\C)C(=O)O)C(C)C)C(C)(C)C)C(C)(C)c1ccccc1`, for which the IC50 in the assay on KB 3-1 came out at 27 nM; in the assay on KB, 53 nM; in assay [1], 1580 nM.

For the molecule `CN[C@H](C(=O)N[C@H](C(=O)N(C)[C@H](/C=C(\C)C(=O)N1CC=C[C@@H]1C(=O)OC)C(C)C)C(C)(C)C)C(C)(C)c1ccccc1`, the IC50 in the assay on KB 3-1 came out at 3.5 nM; with KB it was 17 nM; in assay [1], 272 nM.

In the case of `CN[C@H](C(=O)N[C@H](C(=O)N(C)[C@H](/C=C(\C)C(=O)N1CCC[C@@H]1C(=O)OC)C(C)C)C(C)(C)C)C(C)(C)C1CCCCC1`, the results for the IC50 (in the assay on KB 3-1; in the assay with KB; in assay [1]) were 3.7 nM, 16 nM and 493 nM, respectively.

Regarding `CN[C@H](C(=O)N[C@H](C(=O)N(C)[C@H](C(=O)O)C(C)C)C(C)(C)C)C(C)(C)c1ccccc1`, the IC50 (in the assay with KB 3-1; in the assay on KB; in assay [1]) was greater than 3000 nM each time.

Regarding `CN[C@H](C(=O)N[C@H](C(=O)N(C)[C@H](/C=C(\C)C(=O)N1CCC[C@@H]1C(=O)OC)C(C)C)C(C)(C)C)C(C)(C)c1ccc(C)c(C)c1`, the 50% inhibitory concentration (IC50) amounted to 1.9 nM in the assay on KB 3-1, 15 nM in the assay with KB and 363 nM in assay [1].

As to `CN[C@H](C(=O)N[C@H](C(=O)N(C)[C@H](/C=C(\C)C(=O)CO)C(C)C)C(C)(C)C)C(C)(C)c1ccccc1`, the IC50 was 43 nM in the assay with KB 3-1, 68 nM in the assay on KB and 1130 nM in assay [1].

As to `CN[C@H](C(=O)N[C@H](C(=O)N(C)[C@H](/C=C(\C)C(=O)N1CC=C[C@@H]1C(=O)O)C(C)C)C(C)(C)C)C(C)(C)c1ccccc1`, the half-maximal inhibitory concentration (IC50) in the assay on KB 3-1 was 58 nM; in the assay with KB it was 184 nM; in assay [1] it was greater than 3000 nM.

In the case of `CN[C@H](C(=O)N[C@H](C(=O)N(C)[C@H](/C=C(\C)C(C)O)C(C)C)C(C)(C)C)C(C)(C)c1ccccc1` (some centres not stated), the concentration for half-maximal inhibition (IC50) in the assay with KB 3-1 amounted to 63 nM; in the assay with KB, 172 nM; in assay [1], 1460 nM.

On to `CN[C@H](C(=O)N[C@H](C(=O)N(C)[C@H](/C=C(\C)C(=O)N1CCC[C@@H]1C(=O)OC)C(C)C)C(C)(C)C)C(C)(C)c1cccc(Cl)c1`, for which the IC50 with KB 3-1 stood at 2.5 nM; in the assay with KB, 6.2 nM; in assay [1], 362 nM.
